Legend:
Type in all cases: cell-based
[1] = system: phosphorylated Akt protein; assay: Cellular PI3K / Akt pathway assay (phospho-Akt Ser473 sandwich ELISA); conditions: Homo sapiens; MCF7 cells, ß-Heregulin (20ng/ml) stimulation, 48h incubation
Method: In order to study the cellular activity of the compounds according to the present invention, an Enzyme Linked Immunosorbent Assay (ELISA)-based assay has been used specific phospho-AKT. The assay is based on a Sandwich ELISA kit (PathScan™ Phospho-Akt1 (Ser473); Cell Signaling, USA; #7160). The ELISA Kit detects endogenous levels of phosphorylated Akt protein. A phospho-Akt (Ser473) antibody (Cell Signaling, USA; #9271) has been coated onto the microwells. After incubation with cell lysates, the coated antibody captures the phosphorylated Akt protein. Following extensive washing, Akt1 monoclonal antibody (Cell Signaling, USA; #2967) is added to detect the captured phospho-Akt1 protein. HRP-linked anti-mouse antibody (HRP: horseradish peroxidase; Cell Signaling, USA; #7076) is then used to recognize the bound detection antibody. HRP substrate (= 3,3',5,5'-tetramethylbenzidine (TMB); Cell Signaling, USA; #7160) is added to develop colour. The magnitude of optical density for this developed color is proportional to the quantity of phosphorylated Akt protein. MCF7 cells (ATCC HTB-22) are seeded into 96 well fate bottom plates at a density of 10000 cells/well. 24 hours after seeding, the cells are serum starved using low-serum medium (IMEM media including 0,1% charcoal treated FCS (FCS: fetal calf serum)). […] To stimulate Akt phosphorylation, ß-Heregulin (20ng/ml ß-HRG) is added in parallel to the compounds. Wells containing unstimulated control cells (no ß-Heregulin stimulation) are incubated with or without the diluted compound. Wells containing untreated control cells (no compound) are filled with medium containing 0.5% v:v DMSO and are or are not stimulated with ß-Heregulin. Cells are harvested and lysed with brief sonification in 1x cell lysis buffer (20mM Tris (pH7.5), 150 mM NaCl, 1 mM ethylene diaminetetraacetate (EDTA), 1 mM ethylene glycolbis(2-aminoethyl)-N,N,N',N'-tetraacetic acid (EGTA), 1vol% Triton X-100, 2.5mM sodium pyrophosphate, 1 mM β-glycerolphosphate, 1 mM Na3VO4, 1µg/ml leupeptin). The lysate is centrifuged for 10 min. at 4°C and the supernatant is transferred to a new tube. 100 µl of sample diluent (0.1vol% Tween-20, 0.1vol% sodium azide in phosphate buffered saline (PBS)) are added to a microcentrifuge tube and 100 µl of cell lysate are transferred into the tube and vortexed. 100 µl of each diluted cell lysate are added to the appropriate ELISA well, and incubated overnight at 4°C. The plates are washed 4 times with 1x wash buffer (1vol% tween-20, 0.33vol% thymol, in PBS). Next 100 µl of detection antibody (Akt1 (2H10) monoclonal detection antibody; Cell Signaling, USA; #2967) are added to each well and incubation continued for 1h at 37°C. The washing procedure is repeated between each step. 100µl of secondary antibody (anti-mouse IgG HRP-linked antibody; Cell Signaling, USA; #7076) are added to each well and incubated for 30 min. at 37°C. Than, 100µl of TMB substrate (0.05% 3,3',5,5' tetramethylbenzidine, 0.1 % hydrogen peroxide, complex polypeptides in a buffered solution; Cell Signaling, USA; #7160) are added to each well and incubated for 30 min. at 25°C. Finally 100 µl of STOP solution (0.05vol% α and β unsaturated carbonyl compound) are added to each well and the plate are shaked gently. The absorbance is measured at λ =450 nm (Wallac Victor2; Perkin Elmer, USA) within 30 min. after adding the STOP solution. The analysis of the data is performed using a statistical program (Excel; Microsoft, USA). Preferred compounds show an inhibitory activity towards Akt phosphorylation below 10µM.

[2] = system: phosphorylated GSK3; assay: Cellular pGSK3 assay (phospho-GSK3 Ser9 sandwich ELISA); conditions: Homo sapiens; MCF7 cells, 48h incubation, IC50 of pGSK3 inhibition
Method: In order to study the cellular activity of the compounds according to the present invention, an ELISA-based assay has been established for the phosphorylated protein glycogen synthetase kinase 3 (GSK3). The assay is based on a solid phase sandwich ELISA that detects endogenous levels of phosphorylated GSK3 using a phospho-GSK3 (Ser9) specific antibody (BioSource International, Inc.; Catalog #KHO0461). After incubation with cell lysates, the coated antibody captures the phosphorylated GSK3 protein. Following extensive washing, GSK3 polyclonal antibody is added to detect the captured phospho-GSK3 protein. Secondary antibody (anti-rabbit IgG-HRP) is then used to recognize the bound detection antibody. After the second incubation and washing to remove all the excess anti-rabbit IgG-HRP, a substrate solution is added, which is acted upon by the bound enzyme to produce color. The intensity of this colored product is directly proportional to the concentration of GSK-3β [pS9] present in the original specimen. MCF7 cells (ATCC HTB-22) were seeded into 96 well fate bottom plates at a density of 10000 cells/well. After 24 h 1 µl each of the compound dilutions (test compounds were dissolved as 10 mM solutions in dimethylsulfoxide (DMSO) and subsequently diluted) were added into each well of the 96 well plates and incubated for 48h at 37°C in a humidified athmosphere containing 5% CO2. Cells were harvested and lysed in cell extraction buffer (10 mM Tris, pH 7.4, 100 mM NaCl, 1 mM EDTA, 1 mM EGTA, 1 mM NaF, 20 mM Na4P2O7, 2 mM Na3VO4, 1% Triton X-100, 10vol% glycerol, 0.1vol% SDS, 0.5vol% deoxycholate, 1 mM phenylmethylsulfonylfluorid (PMSF)). The lysate were centrifuged for 10 min. at 4°C and the supernatant were transferred to a new tube. 50 µl of sample diluent (standard diluent buffer, Biosource) were added and 100 µl of cell lysate transferred into the tube and vortexed. 100 µl of each diluted cell lysate were added to the appropriate ELISA well plate and incubated for 3h at room temperature. The plates were washed 4 times with 1x wash buffer (Biosource). 50 µl of detection antibody (GSK3 (Ser9) detection antibody; BioSource) were added to each well and incubated for 30 min. at room temperature. The washing procedure was repeated between each step. 100µl of HRP-linked secondary antibody (anti-mouse IgG HRP-linked antibody) were added to each well and incubated for 30 min. at room temperature. 100µl of TMB substrate (0.05vol% 3,3',5,5' tetramethylbenzidine, 0.1vol% hydrogen peroxide, complex polypeptides in a buffered solution; Biosource) were added to each well and incubated for 30 min. at room temperature. Finally 100 µl of Stop solution (0.05vol% α and β unsaturated carbonyl compound) were added to each well and the plate were shaked gently for a few seconds. The absorbance was measured at λ = 450 nm (Wallac Victor2; Perkin Elmer, USA) within 30 min. after adding the stop solution. The analysis of the data was performed using a statistical program (Excel; Microsoft, USA) and the IC50 of pGSK3 inhibition was determined.

[3] = system: OvCAR3 cells; assay: Cellular proliferation / Cytotoxicity assay (Alamar Blue / Resazurin cell viability); conditions: Homo sapiens, OVCAR-3, 48h incubation, read-out: Anti-proliferative / Cytotoxic activity (OvCAR3 cells)
Method: Wells containing untreated control cells were filled with 200 µl DMEM (Dulbecco's Modified Eagle Medium) containing 0.5vol% v:v DMSO. The cells are then incubated with the substances for 48h at 37°C in a humidified atmosphere containing 5vol% CO2. To determine the viability of the cells, 20 µl of a Resazurin solution (90mg / I) are added. […] Viabilities are expressed as % values.

Row | IC50 [1] | IC50 [2] | Compound | IC50 [3]
1 | < 1000 nM | < 1000 nM | c1ccc(-c2c(-c3ccc(CN4CCC(c5n[nH]c(-c6ccccn6)n5)CC4)cc3)nc3nccnn23)cc1 [Example 3, 7-phenyl-6-(4-{[4-(5-pyridin-2-yl-1H-1,2,4-triazol-3-yl)piperidin-1-yl]methyl}phenyl)imidazo[1,2-b][1,2,4]triazine] | < 10000 nM
2 | < 1000 nM | 1000 to 10000 nM | Ic1cnc2nc(-c3ccc(CN4CCC(c5n[nH]c(-c6ccccn6)n5)CC4)cc3)c(-c3ccccc3)n2c1 [Example 23, 6-iodo-3-phenyl-2-(4-{[4-(5-pyridin-2-yl-1,2,4-triazol-3-yl)piperidin-1-yl]methyl}phenyl)imidazo[1,2-a]pyrimidine] | < 10000 nM
3 | < 1000 nM | < 1000 nM | Cc1ccn2c(-c3ccccc3)c(-c3ccc(CN4CCC(c5n[nH]c(-c6ccccn6)n5)CC4)cc3)nc2n1 [Example 19, 7-methyl-3-phenyl-2-(4-{[4-(5-pyridin-2-yl-1,2,4-triazol-3-yl)piperidin-1-yl]methyl}phenyl)imidazo[1,2-a]pyrimidine] | < 10000 nM
4 | < 1000 nM | 1000 to 10000 nM | COc1cccn2c(-c3ccccc3)c(-c3ccc(CN4CCC(c5n[nH]c(-c6ccccn6)n5)CC4)cc3)nc12 [Example 13, 8-methoxy-3-phenyl-2-(4-{[4-(5-pyridin-2-yl-1,2,4-triazol-3-yl)piperidin-1-yl]methyl}phenyl)imidazo[1,2-a]pyridine] | < 10000 nM
5 | 1000 to 10000 nM | 1000 to 10000 nM | c1ccc(-c2nc(C3CCN(Cc4ccc(-c5nc6ccccn6c5-c5ccncc5)cc4)CC3)n[nH]2)nc1 [Example 16, 3-pyridin-4-yl-2-(4-{[4-(5-pyridin-2-yl-1,2,4-triazol-3-yl)piperidin-1-yl]methyl}phenyl)imidazo[1,2-a]pyridine] | < 10000 nM
6 | < 1000 nM | < 1000 nM | COc1ccn2c(-c3ccccc3)c(-c3ccc(CN4CCC(c5n[nH]c(-c6ccccn6)n5)CC4)cc3)nc2n1 [Example 24, 7-methoxy-3-phenyl-2-(4-{[4-(5-pyridin-2-yl-1,2,4-triazol-3-yl)piperidin-1-yl]methyl}phenyl)imidazo[1,2-a]pyrimidine] | < 10000 nM
7 | < 1000 nM | 1000 to 10000 nM | Cc1cccn2c(-c3ccccc3)c(-c3ccc(CN4CCC(c5n[nH]c(-c6ccccn6)n5)CC4)cc3)nc12 [Example 8, 8-methyl-3-phenyl-2-(4-{[4-(5-pyridin-2-yl-1,2,4-triazol-3-yl)piperidin-1-yl]methyl}phenyl)imidazo[1,2-a]pyridine] | < 10000 nM
8 | < 1000 nM | 1000 to 10000 nM | Clc1ccc2nc(-c3ccc(CN4CCC(c5nnc(-c6ccccn6)[nH]5)CC4)cc3)c(-c3ccccc3)n2c1 [Example 7, 6-chloro-3-phenyl-2-(4-{[4-(5-pyridin-2-yl-4H-1,2,4-triazol-3-yl)piperidin-1-yl]methyl}phenyl)imidazo[1,2-a]pyridine] | < 10000 nM
9 | 1000 to 10000 nM | < 1000 nM | c1ccc(-c2c(-c3ccc(CN4CCC(c5cc(-c6ccccn6)n[nH]5)CC4)cc3)nc3ncccn23)cc1 [Example 30, 3-phenyl-2-(4-{[4-(3-pyridin-2-yl-pyrazol-5-yl)piperidin-1-yl]methyl}phenyl)imidazo[1,2-a]pyrimidine] | < 10000 nM
10 | < 1000 nM | < 1000 nM | NC(=O)c1ccn2c(-c3ccccc3)c(-c3ccc(CN4CCC(c5n[nH]c(-c6ccccn6)n5)CC4)cc3)nc2c1 [Example 38, 3-phenyl-2-(4-{[4-(5-pyridin-2-yl-1,2,4-triazol-3-yl)piperidin-1-yl]methyl}phenyl)imidazo[1,2-a]pyridine-7-carboxamide] | < 10000 nM
11 | < 1000 nM | 1000 to 10000 nM | Brc1ccc2nc(-c3ccc(CN4CCC(c5n[nH]c(-c6ccccn6)n5)CC4)cc3)c(-c3ccccc3)n2c1 [Example 6, 6-bromo-3-phenyl-2-(4-{[4-(5-pyridin-2-yl-1,2,4-triazol-3-yl)piperidin-1-yl]methyl}phenyl)imidazo[1,2-a]pyridine] | < 10000 nM
